Laboratory results: ChEMBL document CHEMBL5365481, “Design, Synthesis, and Activity Evaluation of Novel Dual-Target Inhibitors with Antifungal and Immunoregulatory Properties” (J Med Chem, 2023)
≈ marks a conversion by molar mass, not a printed value. Calls of active or inactive are those of the source. No cut-off for these calls is given here.

System: Cryptococcus neoformans
Test: Antifungal activity against Cryptococcus neoformans ZKCC 2209 assessed as inhibition of fungal growth incubated for 72 hrs by CLSI based liquid medium microdilution method
Type: functional
Details: not given

Row | SMILES | MIC50
1 | OC(Cn1cncn1)(Cn1cncn1)c1ccc(F)cc1F [FLUCONAZOLE] | 1 µg/mL (≈ 3.27 µM)

System: Pichia kudriavzevii
Test: Antifungal activity against Candida krusei ATCC 6258 assessed as inhibition of fungal growth incubated for 72 hrs by CLSI based liquid medium microdilution method
Type: functional
Details: not given

Row | SMILES | MIC50
2 | OC(Cn1cncn1)(Cn1cncn1)c1ccc(F)cc1F [FLUCONAZOLE] | 1 µg/mL (≈ 3.27 µM)

System: Candida tropicalis
Test: Antifungal activity against Candida tropicalis ATCC 1369 assessed as inhibition of fungal growth incubated for 72 hrs by CLSI based liquid medium microdilution method
Type: functional
Details: not given

Row | SMILES | MIC50
3 | OC(Cn1cncn1)(Cn1cncn1)c1ccc(F)cc1F [FLUCONAZOLE] | 0.5 µg/mL (≈ 1.63 µM)

System: Candida albicans
Test: Antifungal activity against fluconazole-resistant Candida albicans CaR assessed as inhibition of fungal growth incubated for 72 hrs by CLSI based liquid medium microdilution method
Type: functional
Details: not given

Row | SMILES | MIC50
4 | OC(Cn1cncn1)(Cn1cncn1)c1ccc(F)cc1F [FLUCONAZOLE] | > 8 µg/mL

System: Candida albicans
Test: Antifungal activity against fluconazole-resistant Candida albicans 632 assessed as inhibition of fungal growth incubated for 72 hrs by CLSI based liquid medium microdilution method
Type: functional
Details: not given

Row | SMILES | MIC50
5 | OC(Cn1cncn1)(Cn1cncn1)c1ccc(F)cc1F [FLUCONAZOLE] | > 8 µg/mL

Target: T1, Lanosterol 14-alpha demethylase (Candida albicans (strain SC5314 / ATCC MYA-2876) (Yeast), UniProt P10613)
T1 sequence (P10613 whole entry): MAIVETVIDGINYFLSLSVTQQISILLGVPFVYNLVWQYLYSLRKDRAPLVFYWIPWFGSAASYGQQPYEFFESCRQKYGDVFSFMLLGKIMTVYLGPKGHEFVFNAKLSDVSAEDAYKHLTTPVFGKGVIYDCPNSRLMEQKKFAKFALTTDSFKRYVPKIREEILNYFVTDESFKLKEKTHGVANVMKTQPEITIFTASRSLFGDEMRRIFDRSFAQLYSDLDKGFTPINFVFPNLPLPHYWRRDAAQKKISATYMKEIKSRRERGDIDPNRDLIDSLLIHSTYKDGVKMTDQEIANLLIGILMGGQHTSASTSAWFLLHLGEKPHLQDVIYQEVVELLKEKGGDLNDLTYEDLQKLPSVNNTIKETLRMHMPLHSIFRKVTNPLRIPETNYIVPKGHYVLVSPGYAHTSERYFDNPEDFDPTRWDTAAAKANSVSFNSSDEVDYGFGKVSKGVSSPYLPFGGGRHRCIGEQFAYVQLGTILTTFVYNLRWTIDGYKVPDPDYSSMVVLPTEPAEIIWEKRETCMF
Test: Inhibition of Candida albicans ATCC SC5314 CYP51 using lanosterol as substrate incubated for 30 mins by HPLC assay
Details: not given

Row | SMILES | IC50
6 | OC(Cn1cncn1)(Cn1cncn1)c1ccc(F)cc1F [FLUCONAZOLE] | 159 nM

Target: T1, Lanosterol 14-alpha demethylase
Test: Inhibition of Candida albicans ATCC SC5314 CYP51 assessed as other unknown sterol content at 4 ug/ml measured after 16 hrs by GC-MS analysis (Rvb= 3.82%)
Design: scale not given: the % may be the effect or the level left
Details: at 4 µg/mL

Row | SMILES | Activity
7 | OC(Cn1cncn1)(Cn1cncn1)c1ccc(F)cc1F [FLUCONAZOLE] | 5.58%

System: Candida albicans
Test: Antifungal activity against Candida albicans ATCC SC5314 assessed as change in osmotic pressure at 1 microM/ml incubated for 48 hrs by absorbance based assay
Type: functional, organism-based
Details: not given

Row | SMILES | Activity
8 | OC(Cn1cncn1)(Cn1cncn1)c1ccc(F)cc1F [FLUCONAZOLE] | Active

System: Candida albicans
Test: Antifungal activity against Candida albicans ATCC SC5314 assessed as change in structural stability at 1 microM/ml incubated for 48 hrs by absorbance based assay
Type: functional, organism-based
Details: not given

Row | SMILES | Activity
9 | OC(Cn1cncn1)(Cn1cncn1)c1ccc(F)cc1F [FLUCONAZOLE] | Active

System: Candida albicans
Test: Induction of ROS generation in Candida albicans ATCC SC5314 assessed as increase in fluorescence intensity at 1 microM/ml incubated for 48 hrs by fluorescent microscopy
Type: functional, organism-based
Details: not given

Row | SMILES | Activity
10 | OC(Cn1cncn1)(Cn1cncn1)c1ccc(F)cc1F [FLUCONAZOLE] | Active

System: Candida albicans
Test: Induction of mitochondrial membrane depolarization in Candida albicans ATCC SC5314 assessed as polarized cells at 1 microM/ml incubated for 24 hrs by JC-1 staining based flow cytometry assay (reference value: 0.28 +/- 0.02%)
Type: functional
Details: not given

Row | SMILES | Activity
11 | OC(Cn1cncn1)(Cn1cncn1)c1ccc(F)cc1F [FLUCONAZOLE] | 0.39%

System: Candida albicans
Test: Induction of mitochondrial membrane depolarization in Candida albicans ATCC SC5314 assessed as normal cells at 1 microM/ml incubated for 24 hrs by JC-1 staining based flow cytometry assay (reference value: 94.4 +/- 1.15%)
Type: functional
Details: not given

Row | SMILES | Activity
12 | OC(Cn1cncn1)(Cn1cncn1)c1ccc(F)cc1F [FLUCONAZOLE] | 65.4%

System: Candida albicans
Test: Induction of apoptosis in Candida albicans ATCC SC5314 assessed as increase in blue fluorescence intensity at 1 microM/ml incubated for 48 hrs by Hoechst 33258/PI staining based fluorescence microscopy
Type: functional, organism-based
Details: not given

Row | SMILES | Activity
13 | OC(Cn1cncn1)(Cn1cncn1)c1ccc(F)cc1F [FLUCONAZOLE] | Active

System: Candida albicans
Test: Induction of apoptosis in Candida albicans ATCC SC5314 assessed as early apoptotic cells at 1 microM/ml incubated for 48 hrs by Hoechst 33258/PI staining based flow cytometry (Rvb= 5.1 +/- 0.3%)
Type: functional
Details: not given

Row | SMILES | Activity
14 | OC(Cn1cncn1)(Cn1cncn1)c1ccc(F)cc1F [FLUCONAZOLE] | 55.3%

System: Candida albicans
Test: Induction of apoptosis in Candida albicans ATCC SC5314 assessed as late apoptotic cells at 1 microM/ml incubated for 48 hrs by Hoechst 33258/PI staining based flow cytometry (Rvb= 0.05 +/- 0.01%)
Type: functional
Details: not given

Row | SMILES | Activity
15 | OC(Cn1cncn1)(Cn1cncn1)c1ccc(F)cc1F [FLUCONAZOLE] | 0.07%

System: Candida albicans
Test: Induction of apoptosis in Candida albicans ATCC SC5314 assessed as necrotic cells at 1 microM/ml incubated for 48 hrs by Hoechst 33258/PI staining based flow cytometry (Rvb= 0.03 +/- 0.01%)
Type: functional
Details: not given

Row | SMILES | Activity
16 | OC(Cn1cncn1)(Cn1cncn1)c1ccc(F)cc1F [FLUCONAZOLE] | 0.02%

System: Candida albicans
Test: In vivo antifungal activity against Candida albicans ATCC SC5314 infected in BALB/c mouse assessed as increase in body weight at 10 ug, ip for 14 days
Type: functional, organism-based
Details: dose 10.0 µg, time 14.0 day

Row | SMILES | Activity
17 | OC(Cn1cncn1)(Cn1cncn1)c1ccc(F)cc1F [FLUCONAZOLE] | Active

System: Candida albicans
Test: In vivo antifungal activity against Candida albicans ATCC SC5314 infected in BALB/c mouse assessed as shrinkage in infected region at 10 ug, ip for 14 days
Type: functional, organism-based
Details: dose 10.0 µg, time 14.0 day

Row | SMILES | Activity
18 | OC(Cn1cncn1)(Cn1cncn1)c1ccc(F)cc1F [FLUCONAZOLE] | Active

System: Candida albicans
Test: In vivo antifungal activity against Candida albicans ATCC SC5314 infected in BALB/c mouse assessed as disappearance of nuclei aggregation at 10 ug, ip for 14 days by GMS staining based microscopy
Type: functional, organism-based
Details: dose 10.0 µg, time 14.0 day

Row | SMILES | Activity
19 | OC(Cn1cncn1)(Cn1cncn1)c1ccc(F)cc1F [FLUCONAZOLE] | Active

System: not listed separately
Test: Toxicity in BALB/c mouse infected with Candida albicans ATCC SC5314 assessed as morphological changes in liver at 10 ug, ip for 14 days by H and E staining based microscopy
Type: organism-based
Details: in vivo, 336 h, dose 10 µg, time 14 day

Row | SMILES | Activity
20 | OC(Cn1cncn1)(Cn1cncn1)c1ccc(F)cc1F [FLUCONAZOLE] | Non-Toxic

System: not listed separately
Test: Toxicity in BALB/c mouse infected with Candida albicans ATCC SC5314 assessed as morphological changes in spleen at 10 ug, ip for 14 days by H and E staining based microscopy
Type: organism-based
Details: in vivo, 336 h, dose 10 µg, time 14 day

Row | SMILES | Activity
21 | OC(Cn1cncn1)(Cn1cncn1)c1ccc(F)cc1F [FLUCONAZOLE] | Non-Toxic

System: not listed separately
Test: Toxicity in BALB/c mouse infected with Candida albicans ATCC SC5314 assessed as morphological changes in lung at 10 ug, ip for 14 days by H and E staining based microscopy
Type: organism-based
Details: in vivo, 336 h, dose 10 µg, time 14 day

Row | SMILES | Activity
22 | OC(Cn1cncn1)(Cn1cncn1)c1ccc(F)cc1F [FLUCONAZOLE] | Non-Toxic

System: not listed separately
Test: Toxicity in BALB/c mouse infected with Candida albicans ATCC SC5314 assessed as morphological changes in kidney at 10 ug, ip for 14 days by H and E staining based microscopy
Type: organism-based
Details: in vivo, 336 h, dose 10 µg, time 14 day

Row | SMILES | Activity
23 | OC(Cn1cncn1)(Cn1cncn1)c1ccc(F)cc1F [FLUCONAZOLE] | Non-Toxic

System: not listed separately
Test: Toxicity in BALB/c mouse infected with Candida albicans ATCC SC5314 assessed as plasma AST level at 10 ug, ip for 14 days
Type: organism-based
Details: in vivo, 336 h, dose 10 µg, time 14 day

Row | SMILES | Activity
24 | OC(Cn1cncn1)(Cn1cncn1)c1ccc(F)cc1F [FLUCONAZOLE] | 79.7 IU/L

System: not listed separately
Test: Toxicity in BALB/c mouse infected with Candida albicans ATCC SC5314 assessed as plasma ALT level at 10 ug, ip for 14 days
Type: organism-based
Details: in vivo, 336 h, dose 10 µg, time 14 day

Row | SMILES | Activity
25 | OC(Cn1cncn1)(Cn1cncn1)c1ccc(F)cc1F [FLUCONAZOLE] | 41.9 IU/L

System: not listed separately
Test: Toxicity in BALB/c mouse infected with Candida albicans ATCC SC5314 assessed as plasma BUN level at 10 ug, ip for 14 days
Type: organism-based
Details: in vivo, 336 h, dose 10 µg, time 14 day

Row | SMILES | Activity
26 | OC(Cn1cncn1)(Cn1cncn1)c1ccc(F)cc1F [FLUCONAZOLE] | 24.2 mM

System: Candida albicans
Test: In vivo antifungal activity against Candida albicans ATCC SC5314 infected in BALB/c mouse assessed as decrease in COX2 expression level at 10 ug, ip for 14 days by Western blot analysis
Type: functional, organism-based
Details: dose 10.0 µg, time 14.0 day

Row | SMILES | Activity
27 | OC(Cn1cncn1)(Cn1cncn1)c1ccc(F)cc1F [FLUCONAZOLE] | Active

System: Candida albicans
Test: In vivo antifungal activity against Candida albicans ATCC SC5314 infected in BALB/c mouse assessed as decrease in NLRP3 expression level at 10 ug, ip for 14 days by Western blot analysis
Type: functional, organism-based
Details: dose 10.0 µg, time 14.0 day

Row | SMILES | Activity
28 | OC(Cn1cncn1)(Cn1cncn1)c1ccc(F)cc1F [FLUCONAZOLE] | Active

System: Candida albicans
Test: In vivo antifungal activity against Candida albicans ATCC SC5314 infected in BALB/c mouse assessed as decrease in IFN-gamma expression level at 10 ug, ip for 14 days by Western blot analysis
Type: functional, organism-based
Details: dose 10.0 µg, time 14.0 day

Row | SMILES | Activity
29 | OC(Cn1cncn1)(Cn1cncn1)c1ccc(F)cc1F [FLUCONAZOLE] | Active

System: Candida albicans
Test: In vivo antifungal activity against Candida albicans ATCC SC5314 infected in BALB/c mouse assessed as decrease in COX2 expression level at 10 ug, ip for 14 days by immunohistochemical analysis
Type: functional, organism-based
Details: dose 10.0 µg, time 14.0 day

Row | SMILES | Activity
30 | OC(Cn1cncn1)(Cn1cncn1)c1ccc(F)cc1F [FLUCONAZOLE] | Active

System: Candida albicans
Test: In vivo antifungal activity against Candida albicans ATCC SC5314 infected in BALB/c mouse assessed as decrease in IL-2 expression level at 10 ug, ip for 14 days by immunohistochemical analysis
Type: functional, organism-based
Details: dose 10.0 µg, time 14.0 day

Row | SMILES | Activity
31 | OC(Cn1cncn1)(Cn1cncn1)c1ccc(F)cc1F [FLUCONAZOLE] | Active

System: Candida albicans
Test: In vivo antifungal activity against Candida albicans ATCC SC5314 infected in BALB/c mouse assessed as decrease in IFN-gamma expression level at 10 ug, ip for 14 days by immunohistochemical analysis
Type: functional, organism-based
Details: dose 10.0 µg, time 14.0 day

Row | SMILES | Activity
32 | OC(Cn1cncn1)(Cn1cncn1)c1ccc(F)cc1F [FLUCONAZOLE] | Active

System: Candida albicans
Test: In vivo antifungal activity against Candida albicans ATCC SC5314 infected in BALB/c mouse assessed as decrease in PD-L1 expression level at 10 ug, ip for 14 days by Western blot analysis
Type: functional, organism-based
Details: dose 10.0 µg, time 14.0 day

Row | SMILES | Activity
33 | OC(Cn1cncn1)(Cn1cncn1)c1ccc(F)cc1F [FLUCONAZOLE] | Active
